From paper PMC7719768, “Glycogen Phosphorylase: A Drug Target of Amino Alcohols in Echinococcus granulosus, Predicted by a Computer-Aided Method” (Frontiers in Microbiology, 2020) come the findings set out here.

For experiment [1], the target named is T1, Rabbit muscle Gp (recombinant rabbit Gp) (Oryctolagus cuniculus, UniProt P00489).
T1 construct: gene PYGM; called recombinant rabbit Gp in the methods
T1 sequence (P00489 2-843): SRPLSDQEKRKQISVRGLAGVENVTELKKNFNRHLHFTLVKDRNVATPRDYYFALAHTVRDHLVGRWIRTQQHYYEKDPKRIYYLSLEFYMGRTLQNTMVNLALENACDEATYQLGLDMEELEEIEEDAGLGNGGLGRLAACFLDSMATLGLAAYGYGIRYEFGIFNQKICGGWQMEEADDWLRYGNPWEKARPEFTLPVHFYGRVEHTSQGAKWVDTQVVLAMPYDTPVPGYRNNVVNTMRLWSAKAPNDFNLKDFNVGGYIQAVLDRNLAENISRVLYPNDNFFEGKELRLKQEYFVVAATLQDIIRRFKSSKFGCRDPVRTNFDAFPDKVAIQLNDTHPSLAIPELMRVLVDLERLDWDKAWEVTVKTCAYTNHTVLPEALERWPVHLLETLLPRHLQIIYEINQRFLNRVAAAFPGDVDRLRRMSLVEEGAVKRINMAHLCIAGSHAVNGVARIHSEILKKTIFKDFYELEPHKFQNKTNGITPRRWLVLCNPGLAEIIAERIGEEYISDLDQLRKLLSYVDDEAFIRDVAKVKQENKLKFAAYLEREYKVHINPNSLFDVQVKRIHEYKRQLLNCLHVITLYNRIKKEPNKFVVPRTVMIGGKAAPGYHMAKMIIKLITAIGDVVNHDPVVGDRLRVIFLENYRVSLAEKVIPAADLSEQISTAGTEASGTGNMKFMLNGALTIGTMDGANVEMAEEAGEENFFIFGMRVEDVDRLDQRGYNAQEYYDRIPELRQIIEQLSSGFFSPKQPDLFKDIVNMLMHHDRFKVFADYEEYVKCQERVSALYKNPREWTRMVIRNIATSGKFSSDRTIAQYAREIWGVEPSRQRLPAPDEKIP
Nature of the experiment: glycogen degradation coupled to phosphoglucomutase and glucose-6-phosphate dehydrogenase, NADPH at […] nm. Format: biochemical. The conditions noted are these: read-out: IC50/LC50 (μM) / Gp / Rabbit muscle.

The target of experiment [2] is T2, E. granulosus PSC Gp (EgGps: EgGp1 and EgGp2).
T2 construct: native enzyme in protoscolex homogenate, not purified; band at 96 kD; MN562583 = EgGp1, MN562584 = EgGp2; EgrG_000501500.1 is printed for Gp without saying which gene
Described as above. Format: biochemical, Echinococcus granulosus. Conditions: protoscolex homogenate; 2 mg/ml glycogen, 1 mM AMP, 5 mM MgCl2, Tris-HCl, 25 °C; 2 min pre-incubation; read-out: IC50/LC50 (μM) / Gp / E. granulosus PSC.

Molecules are shown by their SMILES. A value given as a limit tells only on which side of the number the result lay.

Consider `OC(c1cc(C(F)(F)F)nc2c(C(F)(F)F)cccc12)C1CCCCN1` (stereo not shown) [MEF, mefloquine], for which the figures for the IC50 in experiment [1] and in experiment [2] were over 438 µM and 128 µM, respectively.

Turning to `C[C@H]1[C@H](C)CC[C@]2(C(=O)O)CC[C@]3(C)C(=CC[C@@H]4[C@@]5(C)CC[C@H](O)C(C)(C)[C@@H]5CC[C@]43C)[C@H]12` [UA, ursolic acid], the results for the IC50 in experiment [1] and in experiment [2] were 5.47 µM and over 438 µM, respectively.
